Here are results for 3 compounds from patent US20220265658A1, “PHARMACEUTICAL COMPOSITION COMPRISING A TETRAHYDROPYRAZOLOPYRIMIDINONE COMPOUND” (Idorsia Pharmaceuticals Ltd., priority 2019, published 2022).

Data set [1] is described as follows: Stability testing of solid COMPOUND (powder in glass vial, HPLC 1 area vs reference stored at -20° C.). The format is physicochemical. Particulars: 260 nm. On the procedure: Samples were directly analyzed by HPLC without dilution (expected concentration 1000 μg/mL). The HPLC area of each treated sample was compared to the HPLC area of the reference samples.
HPLC system: High pressure mixing Shimadzu Prominence (HPLC_08_DAD); Flow: 1.5 mL/min; Column temperature: 50° C.; Autosampler temperature: 25° C.; Injection volume: 3.0 μL; Column: Waters XBridge BEH C18 2.5 μm 2.1*50 mm Column XP; Wavelength: DAD 260 nm

Data set [2] is described as follows: Gravimetric vapour sorption (GVS) hygroscopicity. The format is physicochemical. The note with it: 25° C., mass change 40% to 80% RH, first adsorption scan. On the procedure: Measurements are performed on a multi sample instrument SPS-100n (ProUmid, Ulm, Germany) operated in stepping mode at 25° C. The sample is allowed to equilibrate at 40% RH before starting a pre-defined humidity program (40-0-95-0-95-40% RH, steps of 5% ARH and with a maximal equilibration time of 24 hours per step are applied). About 20 to 30 mg of each sample is used. The hygroscopic classification is done on the basis of the European Pharmacopeia Technical Guide (1999, page 86), e.g., Non-hygroscopic: increase in mass is less than 0.2% mass/mass; slightly hygroscopic: increase in mass is less than 2% and equal to or greater than 0.2% mass/mass; hygroscopic: increase in mass is less than 15% and equal to or greater than 2% mass/mass. The mass change between 40% relative humidity and 80% relative humidity in the first adsorption scan is considered.

Data set [3] is described as follows: log P measured in octanol/phosphate buffer saline pH 7.4. Type of data set: physicochemical.
From the text: […]

The next data set has as its target T1, C5AR1 (Homo sapiens, UniProt P21730).
T1 construct: host or cells: CHO-K1
T1 sequence (P21730 1-350): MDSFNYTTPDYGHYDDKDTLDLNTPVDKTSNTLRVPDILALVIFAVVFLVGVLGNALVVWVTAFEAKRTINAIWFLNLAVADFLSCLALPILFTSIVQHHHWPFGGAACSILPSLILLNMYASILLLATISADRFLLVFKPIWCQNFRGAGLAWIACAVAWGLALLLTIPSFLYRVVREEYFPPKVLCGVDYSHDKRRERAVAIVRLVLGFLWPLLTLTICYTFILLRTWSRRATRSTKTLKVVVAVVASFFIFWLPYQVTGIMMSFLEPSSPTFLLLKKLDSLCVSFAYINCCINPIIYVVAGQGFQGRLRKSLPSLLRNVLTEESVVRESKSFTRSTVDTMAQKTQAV
The data set is described as follows: In vitro assay: CHO-K1 C5AR1 beta-arrestin cell line (PathHunter), antagonism of C5a. Type of data set: cell-based. Particulars: 1-10 nM C5a agonist; geometric mean; read-out: antagonistic activity (IC50). On the procedure:
Adherent cells (CHO-K1 C5AR1 beta-arrestin cell line, DiscoverX, CA USA) are washed with PBS, detached by incubation with Dissociation Buffer (Gibco Cat #13151-014, 2 ml per 165 cm2 dish) for 3 minutes, then washed with 10 ml PBS (without Mg++ and Ca++) and counted. 7500 cells/384-well are seeded in 384-well plates (Cell culture plate MTP384 white Polystyrene, Corning, Cat #3570) in 20 μl/well Cell plating medium (F12 HAMs/10% FCS/1% P/S) and incubated at 37° C./5% CO2/24 h.
5 μl Antagonist at 6-fold end concentration or DMSO control is added to assay medium and subsequently 5 μl 1-10 nM C5a agonist at 6 fold end concentration. Cells are centrifuged for 1 min at 1000 rpm and incubated for 1.5 hour in at 37° C. Plates are equilibrated at room temperature for several minutes before adding 12 μl/well Detection Reagent (PathHunter Detection Kit, DiscoverX, Cat #93-0001). Plates are centrifuged for 1 min at 1000 rpm and incubated for 45 minutes at RT before being measured on a Fluostar Optima, BMG Labtech. IC50 values are calculated from a serial dilution range of antagonist using inhouse software and given in nmol/l.
The calculated IC50 values may fluctuate depending on the daily cellular assay performance. Fluctuations of this kind are known to those skilled in the art. Average IC50 values from several measurements are given as geometric mean values.

pIC50: −log10 of the molar value.

For the compound `Cc1cccc(F)c1N1CCC(N2Cc3cn(CC(C)(F)F)nc3N(Cc3ccccc3C(F)(F)F)C2=O)CC1` [Amorphous, 2-(2,2-Difluoro-propyl)-5-[1-(2-fluoro-6-methyl-phenyl)-piperidin-4-yl]-7-(2-trifluoromethyl-benzyl)-2,4,5,7-tetrahydro-pyrazolo[3,4-d]pyrimidin-6-one], the “HPLC 1 area compared to a reference that was stored at −20° C. for the same amount of time” value in data set [1] (closed vial for 30 days at 40° C. and 75% relative humidity) is recorded as 79%; in data set [1] (closed vial for 30 days at room temperature and day light exposure) it was 57%.

Consider `Cc1cccc(F)c1N1CCC(N2Cc3cn(CC(C)(F)F)nc3N(Cc3ccccc3C(F)(F)F)C2=O)CC1` [COMPOUND in crystalline form 1, 2-(2,2-Difluoro-propyl)-5-[1-(2-fluoro-6-methyl-phenyl)-piperidin-4-yl]-7-(2-trifluoromethyl-benzyl)-2,4,5,7-tetrahydro-pyrazolo[3,4-d]pyrimidin-6-one], for which the “HPLC 1 area compared to a reference that was stored at −20° C. for the same amount of time” value in data set [1] (closed vial for 30 days at 40° C. and 75% relative humidity, listed as Form 1) came to 100%; in data set [1] (closed vial for 30 days at room temperature and day light exposure, listed as Form 1), 100%. In addition, the “Hygroscopicity as measured by GVS” value in data set [2] is “non-hygroscopic”.

`Cc1cccc(F)c1N1CCC(N2Cc3cn(CC(C)(F)F)nc3N(Cc3ccccc3C(F)(F)F)C2=O)CC1` [COMPOUND, 2-(2,2-Difluoro-propyl)-5-[1-(2-fluoro-6-methyl-phenyl)-piperidin-4-yl]-7-(2-trifluoromethyl-benzyl)-2,4,5,7-tetrahydro-pyrazolo[3,4-d]pyrimidin-6-one]: the logP (in general, a log measure of how a compound divides between an organic and an aqueous phase) in data set [3] was determined as 6.9. Moreover, at C5AR1, the pIC50 (commonly the IC50 on a negative log10 scale, so that one unit is a factor of ten) was 7.96.
